According to US11040949B2, “Compounds affecting pigment production and methods for treatment of bacterial diseases” (Versitech Limited, priority 2017, dated 2021):
Where two headings read alike, the source gives them in different places.

Columns and labels:
S. aureus COL = test: IM032 staphyloxanthin production inhibition; type: cell-based; details: Staphylococcus aureus, MRSA
Protocol: (§1) This study aimed to evaluate IM032 for its in vitro efficacy to inhibit the production of staphyloxanthin in different strains of S. aureus.
(§2) The negative control was dimethyl sulfoxide (DMSO) which was used to prepare stock solutions and dilutions; positive control in this test was S. aureus strain FPR3757 treated with IM032.
(§3) The test item was dissolved at 44.9 mg/mL in DMSO at 37° C., aliquoted into several tubes, and stored at −20° C. until use. On the day of testing, a stock solution was serially diluted to testing concentrations with DMSO. All solutions were vortexed and mixed with a pipette to achieve homogeneity immediately before dilution. A correction factor for purity was not applied to the test item preparations.
(§4) Each test item solution (6 μL) was combined with 0.6 mL of S. aureus culture in brain heart infusion broth (CFU per well=1×10^7). 12-wells repeats were performed for each concentration in 96-well 2-mL plates. The plates were then incubated in a shaker at 37° C., 250 rpm for 24 hours. The bacteria were centrifuged at 4,000 rpm for 10 min. Next, the bacteria from 4-wells were combined and were washed twice with PBS. Staphyloxanthin was extracted with 300 μL of methanol in a water bath at 60° C. for 1 hour. After centrifugation, 100 μL of supernatant was transferred to a 96-well cell culture plate and OD450 was measured. The relative pigment production at each tested concentration was calculated as follows: […]
(§5) The IC50 for each test was determined based on the calculated inhibition ratio from above with Prism 6.0 by employing a non-linear regression (four parameters) fitting method with assigned bottom and top at 0.05 and 0.95 respectively. The IC50 presented is the best-fit value.
(§6) S. aureus strains (ATCC29213, HG003, Mu3, SH1000, and COL) were treated with IM032 at final concentrations of 4,000, 1,000, 250, 63, 16, 4 and 1 nM (FIG. 7A). S. aureus strains (JE2, USA300-3, LAC, ST239III and Newman) were treated with IM032 at final concentrations of 250, 63, 16, 4, 1, 0.2 and 0.06 nM (FIG. 7B). […] The determined IC50 values of the tested strains range from 1.2 to 70 nM (Tables 6 and 7).

S. aureus Newman = test: IM032 staphyloxanthin production inhibition; type: cell-based; details: Staphylococcus aureus, MSSA / NEWMAN
Protocol: as §1, §2, §3, §4, §5, §6

S. aureus USA300-3 = test: IM032 staphyloxanthin production inhibition; type: cell-based; details: Staphylococcus aureus
Protocol: as §1, §2, §3, §4, §5, §6

[1] = Solubility in simulated gastric and intestinal fluids; type: physicochemical
Source text: The following table (Table 4) illustrates the solubility of two different compounds, NP16-XL-016 (hereinafter as “IM032”) and NP16-XL-061 (hereinafter as “IM032-C”), in two solutions with different pH values simulating the pH of gastric juice and human intestinal fluid using HCl and phosphate buffer respectively.

[2] = tested on: MRSA USA 300 ATCC BAA-1717; test: Mouse (LD0-20) bacteremia model; type: in vivo, BALB/c mice; details: IM032 0.3-30 mg/kg PO BID for 7 days; sacrificed at 168 h (Day 7)
Protocol: Efficacy of IM032 in a Mouse (LD0-20) Bacteremia Model Infected with Methicillin-Resistant Staphylococcus (MRSA USA300) (BAA-1717)
A bacterial strain, USA 300 MRSA BAA-1717, was used to infect BALB/c (female). Test animals were intravenously (IV) inoculated with MRSA ATCC BAA-1717 at a target density of 1×10^6 CFU/mouse. Test substance, IM032 at 0, 0.3, 1, 3, 10, and 30 mg/kg, was administered orally (PO) twice daily (BID) for a total of 7 dosing days.
The reference agents, vancomycin at 3 mg/kg was administered IV once (QD) at 1 h after infection for 7 consecutive days.
With reference to FIG. 9, the animals were IV inoculated with MRSA USA 300 ATCC BAA-1717 at 1.02×10^6 CFU/mouse. IM032 at 0.3, 1, 3, 10, and 30 mg/kg were orally (PO) administrated twice daily (BID) at 1 and 7 h after the infection on Day 1, and then twice daily at 6-hour intervals in the next 6 days for a total of 7 days of dosing. Vancomycin, at 3 mg/kg, was administered intravenously (IV) at 1 h after the infection on Day 1 and then once a day in the next 6 days for a total of 7 days of dosing. […] Statistical significance compared to the respective vehicle control was determined by unpaired student t-tests. […]
With reference to FIG. 10, bacterial density in lung and liver were determined. […] Statistical significance compared to the respective vehicle control was determined by unpaired student t-tests. […]

## O=C(/C=C/c1ccccc1Br)Nc1ccc(S(=O)(=O)N2CCCCC2)cc1 [NP16-XL-016, 3-(6-bromophenyl)-N-[4-(1-piperidine-1-sulfonyl)phenyl]-acrylamide]
S. aureus COL; Table 6, MRSA (HA)
  IC50: 1.2 nM
S. aureus COL; Table 8, HA-MRSA
  IC50: 0.9 ± 1 nM
S. aureus Newman; Table 7
  IC50: 21 nM
S. aureus Newman; Table 8
  IC50: 23.7 ± 1 nM
S. aureus USA300-3; MRSA / USA300, Table 7, USA300-3, MRSA (HA)
  IC50: 27 nM
S. aureus USA300-3; MRSA / USA300, Table 8, USA300-3, HA-MRSA
  IC50: 42.8 ± 6 nM
[1]; 0.1N HCl + 0.1% Tween 80 (simulated gastric fluid), pH 2, aqueous with cosolvent or surfactant or cyclodextrin, read-out: Solubility in pH 2 (0.1N HCl + 0.1% Tween 80)-simulating human stomach
  solubility: 2.03 µg/mL
[1]; pH 7.4, aqueous with cosolvent or surfactant or cyclodextrin, read-out: Solubility in pH 7.4 (KH2PO4 + 0.1% Tween 80)-simulating human intestine
  solubility: 1.74 µg/mL
[1]; two biorelevant media, pH 2 and pH 7.4
  solubility higher than that of IM032-Cl: > 20 ×
[2]
  bacteria count across major organs: statistically significant reduction in bacteria count across major organs
